Common to all, as to type: in vivo, human
In data set [1] the test system is overweight or obese subjects with prediabetes or mild type 2 diabetes. Put plainly: Fasting plasma glucose, insulin and fasting surrogate indices (HOMA-IR, QUICKI, Adipo-IR) in placebo-controlled crossover trial. The following applies: 50 mg every 6 hours for 9 days, n=16. On the procedure:
A randomized, placebo-controlled, double-blind crossover trial was conducted to evaluate the use of an anti-glucocorticoid as a means for ameliorating insulin resistance. Mifepristone, 50 mg, or a placebo, was administered every six hours for nine days to sixteen overweight or obese (BMI 25-37 kg/m^2) subjects (seven women). Participant ages ranged from 48 to 64 years. Ten had prediabetes and six had mild diabetes type II (HgbA1c less than 7%). Treatment of the glucose disorder with diet or a stable dose of metformin (used by two patients) was maintained for three (3) months before the study. The interventions were nine days of mifepristone or placebo treatment followed by a six (6) to eight (8) week wash out and cross over to the other arm. At baseline and at the end of each treatment period, parameters of insulin sensitivity were assessed by a frequently sampled intravenous glucose tolerance test (FSIVGTT) and an oral glucose tolerance test (OGTT). A whole body glucose disposal index of insulin sensitivity (SI) was derived using a minimal model analysis. Adipose tissue-SI, which reflects insulin-induced free fatty acid suppression, was estimated by the log-linear slope of free fatty acid levels and the AUC of insulin during the FSIVGTT. Matsuda index, oral glucose insulin sensitivity index (OGIS, ml/min/m^2), and hepatic insulin resistance index (HIRI, mg/dl×microU/ml×10^5) were derived from OGTT. Adipo-IR, a surrogate measure of adipocyte insulin resistance, was calculated by multiplying fasting concentrations of free fatty acids and insulin (mmol×pmol/L). Comparison of various post-treatment parameters was performed using crossover ANOVA. This analysis takes into account specific treatment arm, treatment order, and treatment effects. Thus, carryover effects were explicitly tested for in the crossover study.
The inventors conducted a random, triple-blinded, placebo-controlled, cross-over study using mifepristone (50 mg every 6 hours, 200 mg total daily dose) in overweight/obese individuals (n=16, 44% female) with pre-DM (pre-diabetes mellitus) or mild type 2 diabetes mellitus (glycated hemoglobin A1C […]). Mifepristone or placebo was administered for 9 days followed by a washout period of 6 to 8 weeks, and then crossover to the other treatment arm. At baseline and after each treatment period, the oral glucose tolerance test and frequently sampled intravenous glucose tolerance test were performed. Insulin sensitivity (SI) was measured using Matsuda index and oral glucose insulin sensitivity index (OGISI). Hepatic SI was assessed using hepatic insulin resistance index (HIRI), and adipose tissue SI was assessed using adipo-IR adipose tissue insulin sensitivity index (ATISI).
The study in this example used a prospective, randomized, double-blind placebo-controlled, cross-over design in which eligible subjects were randomized in blocks of six to the initial arm of the study: either placebo or mifepristone (50 mg tablets every 6 hours) for 9 days. This was followed by a 6-8 week washout period. Subjects were then crossed over to the other treatment arm for an additional 9 days. The study was conducted at the National Institutes of Health (NIH) Clinical Center, Bethesda, Md., U.S.
To reduce potential variability associated with estrogen in premenopausal women, testing was performed in the early follicular phase (days 1-7 of menstrual cycle). Baseline height and weight were measured after an overnight fast. […]

For data set [2], the system named is hypothalamic-pituitary-adrenal axis. Put plainly: 24-hour profile of ACTH and cortisol. How it is done: (§1) To reduce potential variability associated with estrogen in premenopausal women, testing was performed in the early follicular phase (days 1-7 of menstrual cycle). Baseline height and weight were measured after an overnight fast. Subjects received an isocaloric regular diet during the inpatient part of the study, and those on metformin took the same dose throughout the study. Baseline testing took place took place over three inpatient days at the NIH Clinical Center, during which fasting blood was drawn, 24-hour urine was collected, 24-hour serial blood draws were obtained, and patients received both a […] (FSIVGTT) and a 75-g oral glucose tolerance test (OGTT). Subjects were then randomized to receive placebo or mifepristone for 9 days, of which the first 6 days the subjects returned home, and the final 3 days subjects underwent the same metabolic testing as during the baseline period. Subjects randomized to the mifepristone treatment arm were instructed to take one capsule (50 mg) every 6 hours (200 mg/day) over the course of 9 days. The placebo treatment arm received the same instructions to take one capsule every 6 hours over the course of the 9-day treatment period. Following the completion of the post-drug testing, subjects entered a 6-8 week washout period, after which they were crossed over to the other treatment arm, serving as their own controls for the study drug treatments.
Data shown are mean±SEM with p values provided for the effects of treatment group, time, and the treatment-time interaction, which was obtained with repeated-measures ANOVA with post-hoc Bonferroni's test. Tukey box and whisker plots show ACTH (B) and cortisol (D) area under the curve for the 24-hour period. Top and bottom box limits represent the 75th and 25th percentile, respectively; midlines represent the median, and top and bottom whiskers represent the 75th percentile plus 1.5 of the interquartile range (IQR) and the 25th percentile minus 1.5 IQR, respectively. Post-treatment values were adjusted for baseline and treatment group using mixed-model regression. P values indicate significance for comparisons between mifepristone and placebo.

Data set [3] is described as follows: Body weight, blood pressure and serum lipids after 9-day administration. The following applies: 50 mg every 6 hours for 9 days; mean±SD, n=16. How it is done: as §1
Changes in body weight, BP and serum lipid concentrations for each study subject were evaluated at baseline and after 9-day administration of mifepristone or placebo, There were no significant differences observed in body weight or BMI between the treatment arms. BP was higher after mifepristone treatment for both systolic and diastolic values.

The nature of data set [4]: Adverse events and safety laboratory monitoring. The following applies: 50 mg every 6 hours for 9 days. On the procedure: All subjects were instructed to record any adverse effects and to report them to study personnel, and women were advised to keep a record of any abnormal menstrual bleeding. For proper safety monitoring, subjects returned approximately one week (day 19) and three weeks (day 33) after the discontinuation of the study drug for both treatment arms. During this safety visit, serum electrolytes, renal and liver function, and complete blood count were measured, as well as evaluation and treatment for potential treatment-related abnormalities/adverse events.

Where [5] appears, read: 50 mg every 6 hours for 9 days, all subjects.

Several values for one entry are separate records, joined by “and”; a condition that tells them apart may be missing. Identical values can stand only once.

As to `CC#C[C@]1(O)CC[C@H]2[C@@H]3CCC4=CC(=O)CCC4=C3[C@@H](c3ccc(N(C)C)cc3)C[C@@]21C` [Mifepristone, 11beta-[p-(dimethylamino)phenyl]-17alpha-(1-propynl)estra-4,9-dien-17beta-ol-3-one], in data set [1] (post-treatment mean±SD), the “Fasting Glucose” value stood at 100.4 ± 15.3 mg/dL; the “Fasting Insulin” value was 95.7 ± 76.1 pmol/L and 95.6 ± 76.1 pmol/L; the HOMA-IR worked out at 3.58 ± 3.27; the QUICKI was 0.332 ± 0.034. Further, in data set [1] (fasting FFA × fasting insulin, mean±SD), the “Adipose-tissue Insulin Resistance Index (Adipo-IR)” value stood at 50.0±46.0 mmol×pmol/L. In addition, in data set [2] (setting [5]), the “ACTH area under the curve (AUC), 24-hour” value was found to be 574.5 ± 260.8 pg·min/mL and the “Cortisol area under the curve (AUC), 24-hour” value came to 255.4 ± 61.9 µg·min/dL. Further, the “Serum cortisol AUC, subjects with higher 24-hr UFC” value in data set [2] (mifepristone arm, subgroup with higher 24-hr UFC) was 284.9 ± 39.9 µg·min/dL. For the same molecule, the “Serum cortisol AUC, subjects with normal 24-hr UFC” value in data set [2] (mifepristone arm, subgroup with normal 24-hr UFC) was found to be 229.8 ± 68.5 µg·min/dL. Further, in data set [3], the “Body-Mass Index” value stood at 32.2 ± 3.9 kg/m^2, the “Diastolic Blood Pressure” value amounted to 77 ± 9.2 mmHg, the “HDL Cholesterol” value was 41.3 ± 11.9 mg/dL and the “LDL Cholesterol” value amounted to 97.1 ± 34.6 mg/dL. Further, in data set [3], the “Systolic Blood Pressure” value came out at 130 ± 13 mmHg, the “Total Cholesterol” value is 163.6 ± 419 mg/dL and the Triglycerides is 125.6 ± 65.6 mg/dL. Besides, the Serious adverse events entry in data set [4] is given as “No serious adverse events”.
